Data published in ChEMBL document CHEMBL1782038, “Heterocyclic replacement of the central phenyl core of diamine-based histamine H3 receptor antagonists” (Eur J Med Chem, 2009).

Columns and labels:
in vivo [1] = conditions: Sprague-Dawley, rat, iv, 1 mg/kg
in vivo [2] = conditions: Sprague-Dawley, rat, po, 10 mg/kg
in vivo [3] = conditions: Sprague-Dawley, rat, po, 10 mg/kg; remark: listed apart in the source
in vivo [4] = conditions: Sprague-Dawley, rat, po, 10 mg/kg; remark: listed apart in the source
Rattus norvegicus = species on record: Rattus norvegicus; conditions: in vivo, po, 10 mg/kg
in vivo [5] = conditions: Sprague-Dawley, rat, po, 10 mg/kg; remark: listed apart in the source
in vivo [6] = conditions: Sprague-Dawley, rat, iv, 1 mg/kg; remark: listed apart in the source
in vivo [7] = conditions: Sprague-Dawley, rat, iv, 1 mg/kg; remark: listed apart in the source

- Vd (in vivo [1]): 10.6 L
- Tmax (in vivo [2]): 1.7 h
- half-life (in vivo [3]): 33.6 h
- bioavailability (in vivo [4]): 54%
- Vz (Rattus norvegicus): 41.1 L
- CL/F (in vivo [5]): 18.3 mL/min
- half-life (in vivo [6]): 13.8 h
- clearance (in vivo [7]): 9.67 mL/min
Compound: CC(C)N1CCN(C(=O)c2ccc(CN3CCCCC3)cc2)CC1
